Key:
Format in all cases: biochemical, Humulus lupulus
[1] = tested on: HlUGT119; test: Monoterpene glycosylation by recombinant HlUGT119 (UDP-glucose, LC-MS); conditions: 2 mM UDP-glucose, 0.2 mM sugar acceptor substrate, pH 7.5, 30° C., 1 hour
Description: (§1) Next, these proteins were used to test their reactivity with monoterpenes by LC-MS analysis. Standard enzyme reaction conditions are as follows. A reaction solution (2 mM UDP-glucose, 0.2 mM sugar acceptor substrate, 100 mM potassium phosphate buffer (pH 7.5), 25 μl purified […] enzyme solution) was prepared in a volume of 50 μl with distilled water and reacted at 30° C. for 1 hour. The enzyme reaction solution (5 μl) was analyzed by LC-MS under the following conditions. LC Conditions Column: CAPCELL PAK C18-UG120 (2.0 mm I.D.×150 mm) Mobile phase: A: water (containing 0.05% formic acid), B: acetonitrile Gradient: linear concentration gradient of B from 15% to 90% over 15 minutes Flow rate: 0.2 ml per minute Column oven: 40° C. MS Conditions ESI (negative mode) SIM mode: (m/z 315, 338, 361, 363, 331, 354, 377, 429, etc.) The above LC-MS analysis was conducted for each of HlUGT119, HlUGT127, HlUGT279 and HlUGT251.

[2] = tested on: HlUGT127; test: Monoterpene glycosylation by recombinant HlUGT127 (UDP-glucose, LC-MS); conditions: 2 mM UDP-glucose, 0.2 mM sugar acceptor substrate, pH 7.5, 30° C., 1 hour
Description: as §1

[3] = tested on: HlUGT251; test: Monoterpene glycosylation by recombinant HlUGT251 (UDP-glucose, LC-MS); conditions: for monoglycosylation activity of HlUGT251 on the monoterpene: 2 mM UDP-glucose, 0.2 mM sugar acceptor substrate, pH 7.5, 30° C., 1 hour, LC-MS
Description: as §1

[4] = tested on: HlUGT279; test: Monoterpene glycosylation by recombinant HlUGT279 (UDP-glucose, LC-MS); conditions: 2 mM UDP-glucose, 0.2 mM sugar acceptor substrate, pH 7.5, 30° C., 1 hour
Description: as §1

Molecule: CC(C)=CCC/C(C)=C/CO [geraniol, Geraniol]
- monoglycosylation activity of HlUGT119 on the monoterpene [1]: monoglycosylation activity
- monoglycosylation activity of HlUGT127 on the monoterpene [2]: monoglycosylation activity
- monoglycosylation activity of HlUGT251 on the monoterpene [3]: monoglycosylation activity
- monoglycosylation activity of HlUGT279 on the monoterpene [4]: monoglycosylation activity

Molecule: C=CC(C)(O)CCC=C(C)C (stereo not drawn) [linalool, Linalool]
- monoglycosylation activity of HlUGT119 on the monoterpene [1]: monoglycosylation activity
- monoglycosylation activity of HlUGT127 on the monoterpene [2]: monoglycosylation activity
- monoglycosylation activity of HlUGT251 on the monoterpene [3]: monoglycosylation activity
- monoglycosylation activity of HlUGT279 on the monoterpene [4]: monoglycosylation activity

B1: HlUGT251: Humulus lupulus monoterpene glycosyltransferase, amino acid sequence SEQ ID NO: 8, expressed as HisTag fusion in E. coli (protein, listed as Humulus lupulus)
chain: MGSISEMMKPHAVCVPFPAQGHVNPMMQLAKLLHSRGFHITYVNTEFNHRRLIRSRGPDSVKGLPDFQFETIPDGLPPSDRDATQEVPPLCDATRKNCLGPFKELLHKLRSCSEVPPVTCIITDGIMTFGIKAAREFGIPEVVFWTASACSFMGYLQYDELVRRGIVPFKDESFMLDGTLDTPIDWIPGIRDVRLRDLPSFLRVTSTDDIMFDFLGSQAKNCLTSSAIIFNTFRELELEVLDSISDMYPNIYTIGPLPMLNRHLPAESQVKSMSTSLWKEDSTCFQWLHKREPNSVVYVNYGSITTMTEDNFREFAWGLANSKHSFVWIVRPDVIMGSNSATVLPEEFFEEIKDRGLLANWCQQKEVLEHSSVGVFLTHCGWNSTVETVCAGVPVICWPFFADQQTNCHFACKTLGIGVEISPDVKREEVTGLVKEMMEGEKGEKMREKASYWKKKAAETTDIGGDSYHDFDKLIKSLGFDGRD
modifications: His tag
- amount of product compared with the other three enzymes ([3]; same reaction conditions, ascribed to extremely lower amount of expressed protein): smaller amount of product
